Results from patent US4526894A, “Pharmaceutically active 4-hydroxy-3-benzoyl-2-quinolone derivatives” (Nippon Shinyaku Co. Ltd., priority 1982, dated 1985).

Experiments:
[1] = test system: carrageenin edema in SD-strain rats; assay: Carrageenin edema at hind foot of rats (anti-inflammatory action); format: in vivo, rat; conditions: Rattus norvegicus, po, 3 h, 200 mg/kg per os one hour before carrageenin; 3 hours after; read-out: % Inhibition of carrageenin edema
Protocol: The anti-inflammatory action of the compounds of the present invention were evaluated by measuring the inhibition against carrageein edema as set forth below.
Carrageenin edema at hind foot of rats:
SD-strain rats of body weights of around 150 grams were used, each group consisting of five rats. A solution (0.1 ml) of 0.5% carrageenin dissolved in physiological saline water was hypodermically injected into right hind foot pat of the rats and, one hour prior to the injection of carrageenin, 200 mg/kg of test compound was given per os. Foot volumes of the rats before the carrageenin treatment and those of three hours after the treatment were measured and the differences were compared with those of the control group to determine the effect of the compounds.

[2] = test system: passive cutaneous anaphylaxis (DNP-As antigen) in Wister strain rats; assay: passive cutaneous anaphylaxis (PCA) assay in rats; format: in vivo; conditions: 10 mg/kg oral, one hour before antigen; for inhibition in vivo at 10 mg/kg: Rattus norvegicus, po, 1 h, read-out: PCA Inhibition Ratio %
Protocol: (i) Antiserum abundant in homocytotropic antibody is prepared by the same method as Tada and Okumura did (cf. Journal of Immunology, vol. 106, page 1002, 1976). Thus, 1 mg (calculated as an amount of protein) of DNP-As (2,4-dinitrophenyl-coupled ascaris extract) prepared by methods of Strejan and Campbell (Journal of Immunology, vol. 98, p. 893, 1971) and of Eisen (Journal of Amer. Chem. Soc., vol. 85, p 4593, 1953) and 1×10^10pertussis vaccine are administered to each paw of Wister strain rats (180 to 200 grams body weights) by dividing the dose by four. Five days later, 0.5 mg of DNP-As is administered into muscle of back. Eight days later from the initial immunization, blood is taken from descending aorta under anesthetizing with ether, the resulting serum is stored at -80° and is melted before use.
(ii) Effect of tested compounds is investigated as follows:
Anti-serum obtained by the method (i) is diluted with physiological saline solution double by double successively and 0.05 ml of each diluted solution is administered into back of Wister strain rats (140 to 160 grams body weight) subcutaneously. After 72 hours, a solution of 2 mg (calculated as protein) of DNP-As and 2.5 mg of Evans Blue dissolved in 1 ml of physiological saline solution is administered intraveously at a dose of 5 ml/kg. After 30 minutes from antigen solution administration, the animals are killed and diameters of blue spots appeared at the place where antiserum is administered are measured. The PCA test is conducted by the same method as already described using a diluted solutions of antiserum which always show 10 mm or more of spot diameters and the effect of the test compounds is judged. Thus antiserum diluted solutions are administered to two places in back. Test compounds are administered orally at the dose of 10 mg/kg one hour before administration of antigen solution. From the skin of reacted parts of killed animals, leaked or emitted dyestuff is extracted and the amount of the dyestuff is measured. The inhibition ratio is calculated by the following expression:
Inhibition Ratio=(1-A'/A)×100
in which A' is an amount of dyestuff in the group treated with the test compounds and A is that in the control group.

male mice = assay: Acute oral toxicity in mice (lethal ratio); format: in vivo; conditions: 400 mg/kg oral, two weeks, four mice per group
Protocol: Acute toxicity was determined two weeks after oral administration of 400 mg/kg to male mice. Four mice (denominator) are used in each group and the dead numbers are given as the numerator. The compounds of the present invention show little, if any, toxicity.
Lethal ratios for all other compounds are 0/4 at doses of […]. It is therefore apparent that they are all safe compounds.

[3] = test system: SRS-A (slow reacting substance of anaphylaxis); assay: Anti-SRS-A action using isolated ileus of guinea pigs
Protocol: Anti-SRS-As action (An anti-action against slow reacting substance of anaphylaxis).
Hartley strain male guinea pigs (300 to 350 grams body weight) are killed and 1.0 to 1.5 cm of ileus is immeidiately excised from ileocecal parts and is suspended in 10 ml of Tyrode solution (95% O2 -5% CO2 saturation) containing 10^-7 g/ml of atropine and 10^-6 g/ml of pyrilamine. SRS-A (20 units) (the amount of SRS-A showing the same shrinkage as 5 ng of histamine is defined as 1 unit) prepared by using sensitized guinea pig lung is given to cause shrinkage there. Then antagonistic action of test compounds treated five minutes ago against the shrinkage is measured and recorded via isotonic transducer.
Inhibition Ratio of Test Compd (%)=(1-A'/A)×100
in which A' is a height of shrinkage of SRS-A+test compound and A is that of SRS-A.

allergic asthma = conditions: cited from earlier work
[4] = 10^-7 M; guinea pig ileus, SRS-A 20 units; 5 min, 0.1 µM
[5] = 10^-6 M; guinea pig ileus, SRS-A 20 units; 5 min, 1 µM

Row | Structure (SMILES) | inhibition in vivo at 200 mg/kg [1] [%] | PCA Inhibition Ratio % ([2]; rat, 10 mg/kg) [%] | Lethal Ratio (dead/treated) (male mice) | SRS-A Inhibition Ratio % ([3]; 10^-6 M, guinea pig ileus, SRS-A 20 units, 5 min, 1 µM) [%] | SRS-A Inhibition Ratio % (value in parentheses) [3, 4] [%] | inhibition in vivo at 10 mg/kg [2] [%] | SRS-A Inhibition Ratio % [3, 5] [%] | duration of action (in words) (allergic asthma; in vivo) | effect on allergic asthma (in words) (allergic asthma; in vivo) | effect on oral administration (in words) (allergic asthma; oral administration)
1 | CCCCCCc1ccc2[nH]c(=O)c(C(=O)c3ccccc3)c(O)c2c1 [Example 23, 3-benzoyl-6-n-hexyl-4-hydroxy-2-quinolone] | 15.9 | 13.1 | 0/4 | 83.3 | 32.8 | – | – | – | – | –
2 | COc1ccc(C(=O)c2c(O)c3ccccc3[nH]c2=O)c(OC)c1OC [Example 32, 4-hydroxy-3-(2,3,4-trimethoxybenzoyl)-2-quinolone] | – | – | 0/4 | – | 83.3 | 16.3 | 100 | – | – | –
3 | O=C(O)c1cc(=O)c2c(OCC(O)COc3cccc4oc(C(=O)O)cc(=O)c34)cccc2o1 [Sodium chromoglicate] | – | – | – | – | – | – | – | rather short | effective for allergic asthma | does not show any effect on oral administration
4 | O=C(c1ccc([N+](=O)[O-])cc1)c1c(O)c2ccccc2[nH]c1=O [Example 47, 4-hydroxy-3-(4-nitrobenzoyl)-2-quinolone] | – | – | 0/4 | – | – | 49.4 | 22.0 | – | – | –
5 | Cc1cccc2c(O)c(C(=O)c3ccccc3)c(=O)[nH]c12 [Example 19, 3-benzoyl-4-hydroxy-8-methyl-2-quinolone] | 70 | – | 0/4 | – | – | 29.6 | 19.0 | – | – | –
